Source: patent US20040209312A1, “Identifying and reducing the allergenicity of food proteins” (priority 2001, published 2004)

System: naïve human CD4+ T-cells and dendritic cells
Assay type: cell-based
Conditions: for T-cell epitope designation: Ber e 1 dataset, background 4.27%

Row | Substance | T-cell epitope designation (5 μM peptide) | positive control response (T-cell proliferation) (positive control antigen in all tests reported) | percentage of the donor pool that responded with a baseline-normalized response of 2.95 or better (percent responders) (Ber e 1 15-mer peptide set, 5 μM peptide, human donors) [%]
1 | LEGMDESCRCEGLRM [peptide #12] | minor epitopes |  | 
2 | MQPRGEQMRRMMRLA [peptide #20] | minor epitopes |  | 
3 | tetanus toxoid: positive control antigen in the T-cell proliferation assay [reference compound] |  | robust positive control responses | 
4 | RQQMLSHCRMYMRQQ [peptide #4] | reached the three-fold cut-off |  | 18.48
5 | LRMMMMRMQQEEMQP [Peptide # 16] | does not reach any epitope designation |  | 
